Results taken from article PMC8599861, “Structures of prokaryotic ubiquitin-like protein Pup in complex with depupylase Dop reveal the mechanism of catalytic phosphate formation” (Nature Communications, 2021).

Assays:
[1] = target: T1, AcelDop (in complex with AcelPup deltaN43) (Acidothermus cellulolyticus, UniProt A0LU48); experiment: X-ray crystal structures, […]-1.[…] A; format: binding; settings: with PupE deltaN43 and MgF3(H2O)- (7OYF), phosphorylated PupE, Mg2+/K+ (7OY3; ADP formed in crystal soaked with ATP) or MgF4 2- (7OYH); nucleotide site
T1 construct: gene dop; C-terminal TEV-His6 tag cleaved, E. coli Rosetta (DE3); Pup fragment deltaN43 (PupQ, PupE or PupBSO) synthetic; with Prokaryotic ubiquitin-like protein Pup

[2] = target: T1, AcelDop (in complex with AcelPup deltaN43); experiment: X-ray crystal structure, […] A; format: binding; settings: co-crystal with PupQ deltaN43 and Mg2+; nucleotide site, about 72 % occupancy
[3] = target: T1, AcelDop (in complex with AcelPup deltaN43); experiment: intact mass spectrometry of phosphorylated PupBSO; format: biochemical; settings: 2 mM ATP, PupBSO deltaN43 as phosphoryl acceptor, 20 mM MgCl2, pH 8.0, 30 C

T1 sequence (A0LU49 44-71 E71Q): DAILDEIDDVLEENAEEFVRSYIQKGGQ
T1 sequence (A0LU48 whole entry, the tested form may be a part): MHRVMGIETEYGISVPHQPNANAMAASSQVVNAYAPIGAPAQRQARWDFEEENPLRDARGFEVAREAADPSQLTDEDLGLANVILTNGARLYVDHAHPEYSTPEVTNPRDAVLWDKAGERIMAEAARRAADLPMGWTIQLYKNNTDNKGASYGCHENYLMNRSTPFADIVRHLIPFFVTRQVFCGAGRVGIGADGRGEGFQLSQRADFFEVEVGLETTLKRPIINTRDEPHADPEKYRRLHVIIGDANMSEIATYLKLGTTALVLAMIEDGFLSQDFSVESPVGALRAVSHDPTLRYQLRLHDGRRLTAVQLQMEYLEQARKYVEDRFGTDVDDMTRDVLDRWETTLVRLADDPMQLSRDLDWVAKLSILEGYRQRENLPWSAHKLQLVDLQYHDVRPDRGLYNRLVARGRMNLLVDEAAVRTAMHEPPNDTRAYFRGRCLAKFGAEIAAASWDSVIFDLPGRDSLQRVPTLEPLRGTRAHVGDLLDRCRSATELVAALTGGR

`Nc1ncnc2c1ncn2[C@@H]1O[C@H](COP(=O)(O)OP(=O)(O)O)[C@@H](O)[C@H]1O` [ADP] was tested, and the “X-ray crystal structures, 1.75-1.88 A” value [1] was “We solved the structure of a Dop-Pup complex with a square planar MgFx species bound between ADP and Pup”.
`Nc1ncnc2c1ncn2[C@@H]1O[C@H](COP(=O)(O)OP(=O)(O)CP(=O)(O)O)[C@@H](O)[C@H]1O` [AMP-PCP] was tested, and the “X-ray crystal structure, 1.65 A” value [2] was “crystals of the enzyme in complex with the PupQ fragment and AMP-PCP”.
For `Nc1ncnc2c1ncn2[C@@H]1O[C@H](COP(=O)(O)OP(=O)(O)OP(=O)(O)O)[C@@H](O)[C@H]1O` [ATP], the “intact mass spectrometry of phosphorylated PupBSO” value [3] was “Dop indeed forms a phosphorylated PupBSO species in the presence of ATP”.
